Drawing on DBAASP, this text covers MIC for six compounds.

Holding throughout (experiment): ≥ marks a high value that may be exact or a test limit, other limits are often not marked, values filed in µg/mL are converted to µM
The subject of experiment [1] is Escherichia coli O157:H7 ATCC 43895.
Experiment [2] has as its system Escherichia coli U16318.
The subject of experiment [3] is Staphylococcus aureus B38302.
The subject of experiment [4] is Cryptococcus neoformans B3501.
Experiment [5] has as its system Bacillus megaterium Bm11.
Experiment [6] relates to Staphylococcus capitis 1.
Experiment [7] relates to Candida albicans ATCC 10231.
Experiment [8] has as its system Escherichia coli ATCC 25922.
Experiment [9] concerns Yersinia pseudotuberculosis YPIII.
Experiment [10] deals with Staphylococcus aureus Cowan 1.
Experiment [11] has as its system Micrococcus luteus CIP 5345.
Experiment [12] concerns Vibrio splendidus CIP 107715.
For experiment [13], the system named is Staphylococcus aureus CIP 103428.
Experiment [14] concerns Corynebacterium stationis CIP 101282.
For experiment [15], the system named is Staphylococcus haemolyticus.
The test system of experiment [16] is Escherichia coli SBS 363.
Experiment [17] has as its system Staphylococcus aureus SG511.
Experiment [18] has as its system Bacillus megaterium CIP 6620.
In experiment [19] the test system is Vibrio nigripulchritudo CIP 103195.
For experiment [20], the system named is Microbacterium maritypicum CIP 105733T.
Experiment [21] has as its system Stenotrophomonas maltophilia B32/1.
Experiment [22] has as its system Pseudomonas aeruginosa ATCC 27853.
Experiment [23] concerns Staphylococcus epidermidis RP62A.
Experiment [24] relates to Acinetobacter baumannii NM35.
The test system of experiment [25] is Staphylococcus aureus ATCC 25923.
The subject of experiment [26] is Staphylococcus aureus 127/08.
Experiment [27] deals with Acinetobacter baumannii NM8.
Experiment [28] relates to Klebsiella pneumoniae ATCC 700603.
For experiment [29], the system named is Escherichia coli ATCC 25726.
Experiment [30] concerns Candida albicans ATCC 90028.
Experiment [31] deals with Enterococcus faecalis ATCC 29212.
Experiment [32] concerns Staphylococcus epidermidis RP62A/1.
For experiment [33], the system named is Staphylococcus aureus 145/08.
Experiment [34] deals with Staphylococcus epidermidis T6/19.
In experiment [35] the test system is Stenotrophomonas maltophilia B5/5.
For experiment [36], the system named is Bacillus megaterium KCTC 1096.
Experiment [37] concerns Staphylococcus aureus KCTC 1621.
For experiment [38], the system named is Bacillus subtilis KCTC 1918.
The subject of experiment [39] is Proteus vulgaris.
Experiment [40] concerns Escherichia coli KCTC 1682.
Experiment [41] concerns Pseudomonas aeruginosa KCTC 1637.
The subject of experiment [42] is Candida albicans CCARM 14001.
Experiment [43] relates to Candida albicans KCTC 7270.
The test system of experiment [44] is Escherichia coli CCARM 1229.
The subject of experiment [45] is Trichosporon beigelii KCTC 7707.
Experiment [46] concerns Candida albicans CCARM 14020.
Experiment [47] concerns Salmonella typhimurium KCTC 1926.
Experiment [48] concerns Escherichia coli CCARM 1238.
The test system of experiment [49] is Candida albicans CCARM 14007.
In experiment [50] the test system is Listeria monocytogenes KCTC 3710.

Values after ≈ are worked out from the molar mass of the structure shown.

The MIC is the least concentration at which growth counts as inhibited. Higher therefore signals weaker potency. For `CC(C)C[C@H](NC(=O)[C@H](C)N)C(=O)N[C@@H](Cc1c[nH]c2ccccc12)C(=O)N[C@@H](CCCCN)C(=O)N[C@H](C(=O)N[C@@H](CC(C)C)C(=O)N[C@@H](CC(C)C)C(=O)N[C@@H](CCCCN)C(=O)N[C@@H](CCCCN)C(=O)N[C@H](C(N)=O)C(C)C)[C@@H](C)O` [ALWKTLLKKV], the MIC in [1] is no less than 32 µM; in [2] it was no less than 50 µM; in experiment [3] it was no less than 50 µM; in [4], 30 µM (≈ 36 µg/mL).

Take `CC[C@H](C)[C@H](NC(=O)CNC(=O)[C@H](CO)NC(=O)[C@H](C)NC(=O)[C@@H](NC(=O)[C@H](CCCN=C(N)N)NC(=O)CNC(=O)[C@@H](NC(=O)[C@H](CC(C)C)NC(=O)[C@@H]1CCCN1C(=O)[C@H](CC(C)C)NC(=O)[C@@H](N)Cc1ccccc1)[C@@H](C)CC)C(C)C)C(=O)N[C@@H](CC(C)C)C(N)=O` [FLPLIGRVASGIL]: the MIC is no less than 40 µM in experiment [5]; no less than 40 µM in [6]; greater than 40 µM in experiment [7]; greater than 40 µM in experiment [8]; no less than 40 µM in [9]; no less than 40 µM in [10].

For `CC[C@H](C)[C@H](NC(=O)[C@@H]1CCCN1C(=O)CN)C(=O)N[C@@H](CCCN=C(N)N)C(=O)N[C@@H](CCCN=C(N)N)C(=O)N1CCC[C@H]1C(=O)N[C@@H](CCCCN)C(=O)N1CCC[C@H]1C(=O)N[C@@H](CCCN=C(N)N)C(=O)N1CCC[C@H]1C(=O)N[C@@H](CCCN=C(N)N)C(=O)N1CCC[C@H]1C(=O)N[C@@H](CCCN=C(N)N)C(=O)N1CCC[C@H]1C(=O)N[C@@H](CCC(=O)O)C(=O)O` [GPIRRPKPRPRPRPE], the minimum inhibitory concentration (MIC) in [11] was no less than 80 µM; in experiment [12], no less than 40 µM; in [13] it was 20 µM (≈ 36.2 µg/mL); in [14], 20 µM (≈ 36.2 µg/mL); in experiment [15], 20 µM (≈ 36.2 µg/mL); in experiment [16], no less than 80 µM. The minimum inhibitory concentration (MIC) in experiment [17] was 20 µM (≈ 36.2 µg/mL); in experiment [18], 20 µM (≈ 36.2 µg/mL); in [19] it was no less than 40 µM; in [20] it was 20 µM (≈ 36.2 µg/mL).

Regarding `CC[C@H](C)[C@H](N)C(=O)N[C@@H](CCCCN)C(=O)N[C@H](C(=O)N1CCC[C@H]1C(=O)N[C@@H](CO)C(=O)N[C@@H](Cc1ccccc1)C(=O)N[C@@H](Cc1ccccc1)C(=O)N[C@@H](CCCN=C(N)N)C(=O)N[C@@H](CC(N)=O)C(=O)N[C@H](C(=O)N[C@@H](CC(C)C)C(=O)N[C@@H](CCCCN)C(=O)N[C@@H](CCCCN)C(=O)N[C@H](C(=O)NCC(=O)N[C@@H](CCCCN)C(=O)N[C@@H](CCC(=O)O)C(=O)N[C@@H](C)C(=O)N[C@H](C(=O)N[C@@H](CO)C(=O)N[C@@H](CC(C)C)C(=O)N[C@H](C(=O)N[C@@H](C)C(=O)NCC(=O)N[C@@H](C)C(=O)N[C@@H](CC(C)C)C(=O)N[C@@H](CCCCN)C(=O)N[C@@H](CCC(N)=O)C(=O)N[C@@H](CO)C(=O)O)[C@@H](C)CC)C(C)C)C(C)C)[C@@H](C)CC)[C@@H](C)CC` [IKIPSFFRNILKKVGKEAVSLIAGALKQS], the MIC worked out at 5 µM (≈ 15.8 µg/mL) in experiment [21]; 20 µM (≈ 63.1 µg/mL) in experiment [22]; 2.5 µM (≈ 7.89 µg/mL) in experiment [23]; 5 µM (≈ 15.8 µg/mL) in [24]; 7.07 µM (≈ 22.3 µg/mL) in experiment [25]; 5 µM (≈ 15.8 µg/mL) in experiment [26]. For the same compound, the MIC in experiment [27] was 10 µM (≈ 31.6 µg/mL); in [28], 20 µM (≈ 63.1 µg/mL); in experiment [29], 10 µM (≈ 31.6 µg/mL); in experiment [30] it was no less than 80 µM; in [31], 10 µM (≈ 31.6 µg/mL); in [32] it was 1.25 µM (≈ 3.95 µg/mL). Also, the MIC amounted to 10 µM (≈ 31.6 µg/mL) in experiment [33], 2.5 µM (≈ 7.89 µg/mL) in experiment [34] and 10 µM (≈ 31.6 µg/mL) in experiment [35].

For `CC[C@H](C)[C@H](NC(=O)[C@H](CCCCN)NC(=O)[C@H](CCCCN)NC(=O)[C@H](Cc1ccccc1)NC(=O)[C@H](CC(C)C)NC(=O)[C@H](CCCCN)NC(=O)[C@H](Cc1c[nH]c2ccccc12)NC(=O)[C@@H](N)CCCCN)C(=O)N1CCC[C@H]1C(=O)N[C@@H](CC(C)C)C(=O)N[C@@H](C)C(=O)N[C@@H](CCCCN)C(=O)N[C@@H](CCCCN)C(=O)N[C@@H](Cc1ccccc1)C(N)=O` [KWKLFKKIPLAKKF], the MIC in experiment [36] was 3.12 µM (≈ 5.54 µg/mL); in experiment [37] it was 6.25 µM (≈ 11.1 µg/mL); in experiment [38], 1.56 µM (≈ 2.77 µg/mL); in experiment [39], 3.12 µM (≈ 5.54 µg/mL); in experiment [40] it was 8.84 µM (≈ 15.7 µg/mL); in experiment [41], 12.5 µM (≈ 22.2 µg/mL).

Take `NCCCC[C@H](NC(=O)[C@H](Cc1c[nH]c2ccccc12)NC(=O)[C@H](CCCCN)NC(=O)[C@H](Cc1c[nH]c2ccccc12)NC(=O)[C@H](CCCCN)NC(=O)[C@@H](N)Cc1c[nH]c2ccccc12)C(=O)O` [WKWKWK]: the minimal inhibitory concentration (MIC) in experiment [42] is no less than 32 µM; in experiment [43], no less than 32 µM; in experiment [37], no less than 256 µM; in experiment [44], no less than 256 µM; in experiment [45] it was 16 µM (≈ 15.4 µg/mL); in experiment [46], no less than 32 µM. Further, the MIC in experiment [47] was 16 µM (≈ 15.4 µg/mL); in experiment [38], no less than 256 µM; in experiment [48], no less than 256 µM; in experiment [40], no less than 256 µM; in experiment [49], no less than 32 µM; in [50] it was no less than 128 µM. Besides, the MIC in experiment [41] is no less than 64 µM.
